In publication PMC10570359, “Dietary supplementation of cystinotic mice by lysine inhibits the megalin pathway and decreases kidney cystine content” (Scientific Reports, 2023):
Where two headings read alike, the source gives them in different places.

Columns and labels:
porcine megalin [1] = molecular target: T1, porcine megalin (Sus scrofa, UniProt C0HL13); experiment: Surface plasmon resonance: competition for TC:B12 binding to chip-immobilized megalin; details: for IC50: 10 µg/ml TC:B12 in 0 to 100 mM amino-acid, Biacore; for SPR signal of amino-acid alone on megalin chip: chips exposed to increasing concentrations of amino-acid, no analyte
Procedure: (§1) To directly address whether supra-physiological concentrations of dibasic amino-acids (dAAs) can interfere with binding of protein ligands to megalin, we used surface plasmon resonance. Sensor chips were derivatized with porcine megalin at high density. […] After flushing, chips were incubated with 10 µg/ml of three analytes: the megalin chaperone, RAP (receptor-associated protein), as positive control (not shown), or two physiological megalin ligands: transcobalamine:cobalamine complexes (TC:B12; Fig. 1; sensorgrams shown at Supplemental Fig. 1a) or lysozyme (Supplemental Fig. 1b), diluted in 0 to 100 mM of the same amino-acids in buffer. […] The supraphysiological range for effective competition in vitro defined the necessary increment in urinary concentration from dietary supplementation for significant competition in vivo.
Figure 1 Acellular assay: direct competition for transcobalamine:cobalamine binding to megalin immobilized on Biacore sensor chips. Signals of sensorgrams (shown in Supplemental Fig. 1) were normalized to control signal without AA supplementation, taken as the unity, and are means ± SEM of at least four independent technical duplicate values at each of the indicated amino-acid-concentrations.
(§2) Surface plasmon resonance (SPR) analysis of the binding to chip-immobilized megalin of receptor-associated protein (RAP), transcobalamine:cobalamine complex (TC:B12) and lysozyme was carried out using a Biacore T200 instrument (Uppsala, Sweden). The sensor chips (type CM5) were activated with a 1:1 mixture of 0.2 M N-ethyl-N′-(3-dimethylaminopropyl) carbodiimide and 0.05 M N-hydroxysuccinimide in H2O. Porcine megalin[49] was immobilized on the chip in 10 mM sodium acetate, pH 4.0, and the remaining binding sites were blocked with 1 M ethanolamine, pH 8.5. The SPR signal generated from immobilized megalin were obtained with a density of 4.5 fmol protein/mm^2.
(§3) Human RAP was produced as recombinant protein in E. coli[50] and used to validate the sensor chip. TC was purified and complexed with B12 as described (TC/B12)[50],[51]. Human recombinant lysozyme was purchased from Sigma-Aldrich (expressed in rice, # L1667). Sensorgrams were generated using each of these three ligands at 10 µg/ml in a running buffer consisting of 10 mM Hepes, 150 mM NaCl, 4 mM CaCl2 and 0.05% Tween 20, pH 7.4. The flow cells were regenerated with 1 M ethanolamine pH 9.0. Analyte testing was performed as a dual injection starting with running buffer supplemented with the defined concentrations of amino acids followed by injection of analyte in the same solution. The pH of all buffers was adjusted after amino acids addition. All binding experiments were made as at least independent triplicate of technical duplicates and data were analyzed using the Biacore T200 evaluation software version 3.1.

[2] = Tolerance of prolonged 5x-dAA diets in mice; details: ad libitum 5x-supplemented solid diet, approx. 45 mmoles/kg/day
Source text: Ctns knockout mice (C57BL/6 background) were kindly provided by Dr. Corinne Antignac[18]. […] The same increase was set for L- (and D-) lysine.

porcine megalin [3] = molecular target: T1, porcine megalin; experiment: Surface plasmon resonance: competition for lysozyme binding to chip-immobilized megalin; details: 10 µg/ml lysozyme in 0 to 100 mM amino-acid
Procedure: as §1, §2, §3

Ctns KO mice liver = experiment: Liver cystine content in Ctns KO mice; type: in vivo; details: diet from 6-to-8 months-of-age
Procedure: In the second study to explore the effects of the D-lysine stereoisomer, Ctns KO mice received control vs 5x-D-lysine diet from 6-to-8 months-of-age. Mean kidney cystine value at 8 months-of-age under control diet was 109.4 ± 23.0 nmol hemi-cystine/mg kidney protein, slightly lower than in the first study.
Mice were euthanized by cabon dioxide (CO2) inhalation. Dissected tissues were homogenized in 10 mM N-ethylmaleimide. Protein fraction was obtained after precipitation in 10% 5-sulfosalicylic acid and centrifugation at 20,000g for 20 min at 4 °C. Protein pellet was resuspended in 100 mM NaOH and assayed by the Bio-Rad Protein Assay according to manufacturer’s instructions. Supernatant (50 μl) was mixed with 50 μL of the internal standard solution (Cystine d6) and vortexed for 5 s; then the mixture was extracted with 200 μl of acetonitrile, vortexed for at least 30 s, then centrifuged at 13,000 rpm for 9 min. Liquid chromatography and mass spectrometry analysis was performed by a UHPLC Agilent 1290 Infinity II 6470 (Agilent Technologies) equipped with an ESI-JET-STREAM source operating in the positive ion (ESI +) mode. Equipment was controlled and data were analyzed using MassHunter Workstation (Agilent Technologies). […] The assay was validated for selectivity, specificity, linearity and limit of quantification, accuracy and precision, matrix effects and recovery, and stability.

Ctns KO mice kidneys = experiment: Kidney cystine content in Ctns KO mice; type: in vivo; details: diet from 6-to-8 months-of-age
Procedure: For this pilot study, we selected tissue accumulation of cystine as a clear and measurable outcome to quantify long-term interference of dAAs with the endocytic supply of disulfide-rich plasma proteins to kidney PTCs.
Mice were euthanized by cabon dioxide (CO2) inhalation. Dissected tissues were homogenized in 10 mM N-ethylmaleimide. Protein fraction was obtained after precipitation in 10% 5-sulfosalicylic acid and centrifugation at 20,000g for 20 min at 4 °C. Protein pellet was resuspended in 100 mM NaOH and assayed by the Bio-Rad Protein Assay according to manufacturer’s instructions. Supernatant (50 μl) was mixed with 50 μL of the internal standard solution (Cystine d6) and vortexed for 5 s; then the mixture was extracted with 200 μl of acetonitrile, vortexed for at least 30 s, then centrifuged at 13,000 rpm for 9 min. Liquid chromatography and mass spectrometry analysis was performed by a UHPLC Agilent 1290 Infinity II 6470 (Agilent Technologies) equipped with an ESI-JET-STREAM source operating in the positive ion (ESI +) mode. Equipment was controlled and data were analyzed using MassHunter Workstation (Agilent Technologies). The separation column was InfinityLab Poroshell 120 HILIC 1.9 μm 100 × 2.1 mm (Agilent Technologies). Validation of the method was performed basing on the US Food and Drug Administration (FDA) guideline for industry bioanalytical method validation (FDA 2013) and European Medicines Agency (EMA) guideline (EMA 2011). The assay was validated for selectivity, specificity, linearity and limit of quantification, accuracy and precision, matrix effects and recovery, and stability.

megalin pathway [4] = experiment: LMW proteinuria / albuminuria in Ctns KO mice under 5x-dAA diets
Procedure: After 24-h adaptation in metabolic cages, urine was collected during the following 24 h in presence of 0.1% sodium azide and 1x-protease inhibitors (Thermo Scientific). When in metabolic cages, mice had free access to tap water and food. Blood was collected 2 days before starting the treatments and entry into metabolic cages (baseline) and at the sacrifice to obtain serum. Body weight was recorded before entering the metabolic cages. Urine and serum analyses were performed by the veterinary laboratory Appialab Srl (Rome, Italy). Urinary levels of CC16 were measured by the Mouse Clara Cell Protein 16 kit 96 T #EKU03200 (Biomatik) according to manufacturer’s instructions. Serum levels of cystatin-C were measured by the Mouse/Rat Cystatin C Quantitative ELISA #MSCTC0 (R&D Systems). […] Creatinine clearance was normalized by mouse body weight.

[5] = Clinical urine and serum analyses in Ctns KO mice under 5x-dAA diets; details: Ctns KO mice at 8 months of age, 2 months of treatment, mean ± SEM
Source text: We also attempted to further discriminate between luminal (competition for surface megalin binding) and intracellular metabolic effects (see Discussion) by comparing the effects of 5x-L-lysine to its stereoisomer, 5x-D-lysine. Unless stated otherwise, diets were initiated at 6 months-of-age, and mice were studied then euthanized at 8 months-of-age (2-months treatment). This time frame was selected for two reasons. First, in the mouse cystinosis model, this an appropriate window to evaluate the impact on PTC alterations based on changes in kidney cystine accumulation and overall function. […] Second, although primary prevention by earlier intervention (from 2-to-6 months-of-age) better mimics perinatal genetic megalin ablation, thus could be more efficient, secondary intervention (starting at 6 months-of-age), when disease becomes clinically apparent, is more relevant for further translational studies.
(§4) Body weight was recorded before entering the metabolic cages. […] Creatinine clearance was normalized by mouse body weight.

megalin pathway [6] = experiment: LMW proteinuria (urinary CC16) in WT mice under 5x-dAA diets; type: in vivo; details: WT C57Bl-6 mice, 3 weeks diet, vs control diet
Procedure: In a second experiment, 5x-D-lysine was compared to regular diet.
as §4

[7] = Urinary and serum amino-acid concentration by mass spectrometry in Ctns KO mice; type: in vivo
Procedure: as §4
Quantitative analysis of underivatized amino-acids in serum and urine samples was performed using the Amino Acids LC–MS/MS analysis Kit Jasem®. […] Equipment was controlled and data were analyzed using MassHunter Workstation (Agilent Technologies). The assay was validated for selectivity, specificity, linearity and limit of quantification, accuracy and precision, matrix effects and recovery, and stability.

[8] = read-out: IC50 for TC:B12/megalin interaction (mM; 95%CI)
[9] = Ctns KO mice at 8 months of age, 2 months of treatment, urine, mean ± SEM
[10] = Ctns KO mice at 8 months of age, 24-h urine, mean ± SEM
[11] = IC50 for TC:B12/megalin interaction (mM; 95%CI)

T1 sequence (C0HL13 26-4652): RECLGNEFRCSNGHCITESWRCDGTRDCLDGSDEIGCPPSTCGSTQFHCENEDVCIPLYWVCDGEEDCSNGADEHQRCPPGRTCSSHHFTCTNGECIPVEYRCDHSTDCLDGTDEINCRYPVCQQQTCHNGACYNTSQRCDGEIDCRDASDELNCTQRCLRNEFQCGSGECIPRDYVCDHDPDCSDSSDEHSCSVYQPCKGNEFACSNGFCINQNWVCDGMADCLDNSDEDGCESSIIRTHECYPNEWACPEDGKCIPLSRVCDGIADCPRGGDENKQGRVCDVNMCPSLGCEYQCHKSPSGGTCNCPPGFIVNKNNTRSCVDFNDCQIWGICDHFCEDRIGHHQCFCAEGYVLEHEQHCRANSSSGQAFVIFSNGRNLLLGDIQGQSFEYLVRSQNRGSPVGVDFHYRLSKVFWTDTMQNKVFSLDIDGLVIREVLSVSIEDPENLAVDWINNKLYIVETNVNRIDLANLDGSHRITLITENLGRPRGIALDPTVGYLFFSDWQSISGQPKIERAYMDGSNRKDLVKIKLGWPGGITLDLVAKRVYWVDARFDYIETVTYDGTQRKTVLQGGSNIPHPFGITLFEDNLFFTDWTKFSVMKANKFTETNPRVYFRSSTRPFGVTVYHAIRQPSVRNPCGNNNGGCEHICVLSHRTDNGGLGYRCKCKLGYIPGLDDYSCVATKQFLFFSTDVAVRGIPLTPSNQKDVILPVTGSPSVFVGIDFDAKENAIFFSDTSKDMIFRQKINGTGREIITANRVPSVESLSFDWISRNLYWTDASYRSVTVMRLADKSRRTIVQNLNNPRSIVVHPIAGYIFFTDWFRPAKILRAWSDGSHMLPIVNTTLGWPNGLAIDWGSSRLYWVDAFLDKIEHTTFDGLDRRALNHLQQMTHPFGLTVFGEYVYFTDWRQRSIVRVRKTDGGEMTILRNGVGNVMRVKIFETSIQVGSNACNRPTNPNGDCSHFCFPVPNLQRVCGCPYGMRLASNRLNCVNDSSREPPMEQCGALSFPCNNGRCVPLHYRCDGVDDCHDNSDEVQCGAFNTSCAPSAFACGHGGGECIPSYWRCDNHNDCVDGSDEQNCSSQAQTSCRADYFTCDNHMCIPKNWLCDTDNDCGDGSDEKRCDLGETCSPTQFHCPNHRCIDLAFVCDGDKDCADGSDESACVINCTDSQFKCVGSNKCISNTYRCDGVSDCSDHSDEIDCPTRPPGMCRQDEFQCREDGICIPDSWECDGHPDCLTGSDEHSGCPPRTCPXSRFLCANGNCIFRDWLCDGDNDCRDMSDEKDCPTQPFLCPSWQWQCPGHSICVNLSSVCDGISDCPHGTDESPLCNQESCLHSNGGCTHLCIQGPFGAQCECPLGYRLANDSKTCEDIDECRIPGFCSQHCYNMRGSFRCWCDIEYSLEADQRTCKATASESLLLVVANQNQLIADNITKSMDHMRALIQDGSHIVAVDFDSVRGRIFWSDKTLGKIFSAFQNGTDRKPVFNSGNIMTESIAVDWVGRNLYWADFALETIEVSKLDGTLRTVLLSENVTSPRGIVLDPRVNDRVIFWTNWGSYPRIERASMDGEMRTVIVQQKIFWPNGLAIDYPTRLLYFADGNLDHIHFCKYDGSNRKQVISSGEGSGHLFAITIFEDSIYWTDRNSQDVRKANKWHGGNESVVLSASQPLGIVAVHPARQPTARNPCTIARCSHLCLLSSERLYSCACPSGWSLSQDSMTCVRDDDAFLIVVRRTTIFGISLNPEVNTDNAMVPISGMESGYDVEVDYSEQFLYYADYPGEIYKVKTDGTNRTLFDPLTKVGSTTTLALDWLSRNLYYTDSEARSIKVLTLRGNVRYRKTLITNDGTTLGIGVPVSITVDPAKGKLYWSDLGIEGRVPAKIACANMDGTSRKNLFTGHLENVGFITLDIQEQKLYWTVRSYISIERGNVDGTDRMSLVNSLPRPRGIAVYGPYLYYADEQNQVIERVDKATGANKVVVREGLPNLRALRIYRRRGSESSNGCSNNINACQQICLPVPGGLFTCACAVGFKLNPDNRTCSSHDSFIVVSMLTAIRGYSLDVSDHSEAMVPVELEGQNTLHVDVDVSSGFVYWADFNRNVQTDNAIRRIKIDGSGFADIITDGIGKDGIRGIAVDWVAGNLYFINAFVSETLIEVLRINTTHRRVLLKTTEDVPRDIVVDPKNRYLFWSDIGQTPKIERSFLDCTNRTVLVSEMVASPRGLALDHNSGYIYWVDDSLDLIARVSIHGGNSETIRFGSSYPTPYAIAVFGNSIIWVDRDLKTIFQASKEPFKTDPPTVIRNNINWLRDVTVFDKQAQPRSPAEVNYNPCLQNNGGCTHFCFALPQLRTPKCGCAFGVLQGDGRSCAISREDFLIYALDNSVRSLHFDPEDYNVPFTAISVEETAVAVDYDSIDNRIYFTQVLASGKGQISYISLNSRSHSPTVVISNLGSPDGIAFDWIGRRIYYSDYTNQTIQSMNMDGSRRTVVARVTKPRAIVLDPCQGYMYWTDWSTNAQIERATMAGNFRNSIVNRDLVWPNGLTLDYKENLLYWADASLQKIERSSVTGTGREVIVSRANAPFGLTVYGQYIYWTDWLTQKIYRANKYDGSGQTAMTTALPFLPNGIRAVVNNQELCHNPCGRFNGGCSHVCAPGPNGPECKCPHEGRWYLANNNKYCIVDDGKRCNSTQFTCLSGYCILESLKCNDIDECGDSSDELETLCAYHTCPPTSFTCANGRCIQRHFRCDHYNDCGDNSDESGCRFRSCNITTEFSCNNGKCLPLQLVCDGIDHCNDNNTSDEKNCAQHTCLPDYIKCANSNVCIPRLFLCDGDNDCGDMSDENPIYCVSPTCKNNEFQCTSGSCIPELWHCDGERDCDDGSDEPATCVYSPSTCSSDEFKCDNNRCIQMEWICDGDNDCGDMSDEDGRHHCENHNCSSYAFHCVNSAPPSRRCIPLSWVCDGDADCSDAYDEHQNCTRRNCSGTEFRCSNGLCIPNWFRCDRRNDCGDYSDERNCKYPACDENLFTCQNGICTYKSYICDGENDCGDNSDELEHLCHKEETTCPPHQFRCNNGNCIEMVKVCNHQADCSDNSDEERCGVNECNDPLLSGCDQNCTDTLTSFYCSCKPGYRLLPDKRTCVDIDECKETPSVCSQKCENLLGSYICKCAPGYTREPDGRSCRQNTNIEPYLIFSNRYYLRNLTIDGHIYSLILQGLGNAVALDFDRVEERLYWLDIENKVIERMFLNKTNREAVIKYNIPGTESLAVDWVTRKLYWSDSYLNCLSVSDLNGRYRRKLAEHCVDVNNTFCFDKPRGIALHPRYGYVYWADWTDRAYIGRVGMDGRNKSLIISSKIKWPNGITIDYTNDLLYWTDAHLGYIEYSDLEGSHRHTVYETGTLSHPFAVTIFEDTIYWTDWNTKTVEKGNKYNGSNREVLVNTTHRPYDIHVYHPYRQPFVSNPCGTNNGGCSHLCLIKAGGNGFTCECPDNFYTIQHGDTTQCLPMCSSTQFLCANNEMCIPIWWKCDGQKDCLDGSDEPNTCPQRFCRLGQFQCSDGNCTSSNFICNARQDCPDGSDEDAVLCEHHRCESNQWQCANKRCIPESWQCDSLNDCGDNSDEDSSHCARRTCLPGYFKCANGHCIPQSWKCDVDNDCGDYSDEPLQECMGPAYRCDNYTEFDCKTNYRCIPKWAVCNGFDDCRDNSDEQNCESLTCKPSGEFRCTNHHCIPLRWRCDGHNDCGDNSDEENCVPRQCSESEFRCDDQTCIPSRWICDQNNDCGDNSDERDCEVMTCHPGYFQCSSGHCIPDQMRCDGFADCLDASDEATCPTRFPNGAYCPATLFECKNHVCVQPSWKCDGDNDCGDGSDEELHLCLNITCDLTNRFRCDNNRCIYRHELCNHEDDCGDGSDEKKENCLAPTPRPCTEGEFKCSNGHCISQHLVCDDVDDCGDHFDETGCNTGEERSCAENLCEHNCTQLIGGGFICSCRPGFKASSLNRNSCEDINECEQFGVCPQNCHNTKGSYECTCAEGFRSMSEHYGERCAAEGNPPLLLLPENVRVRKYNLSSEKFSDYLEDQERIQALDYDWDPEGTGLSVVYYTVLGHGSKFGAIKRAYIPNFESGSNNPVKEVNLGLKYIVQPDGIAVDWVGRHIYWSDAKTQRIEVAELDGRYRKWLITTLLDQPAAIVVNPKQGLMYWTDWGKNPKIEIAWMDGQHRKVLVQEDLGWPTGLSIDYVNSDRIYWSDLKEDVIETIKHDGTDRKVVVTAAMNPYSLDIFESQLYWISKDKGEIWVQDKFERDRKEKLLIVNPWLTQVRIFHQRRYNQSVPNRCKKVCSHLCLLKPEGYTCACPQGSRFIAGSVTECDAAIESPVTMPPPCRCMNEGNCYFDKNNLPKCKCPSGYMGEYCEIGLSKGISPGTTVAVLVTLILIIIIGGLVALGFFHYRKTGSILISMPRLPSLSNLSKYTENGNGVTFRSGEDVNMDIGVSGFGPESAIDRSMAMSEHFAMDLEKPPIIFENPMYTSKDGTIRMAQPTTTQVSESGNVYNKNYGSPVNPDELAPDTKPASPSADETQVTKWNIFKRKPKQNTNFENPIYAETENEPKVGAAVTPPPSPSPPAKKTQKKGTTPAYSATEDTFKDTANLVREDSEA

SMILES: NC(N)=NCCC[C@@H](N)C(=O)O [5x-D-arginine, D-arginine]
- IC50 (porcine megalin [1]; [8]): 60 mM
- SPR signal of amino-acid alone on megalin chip (porcine megalin [1]): no signal was detected
- tolerance of prolonged diet [2]: weight loss and eventual high mortality
- effect on megalin binding of lysozyme (porcine megalin [3]): concentration-dependent decrease

SMILES: NCCCC[C@@H](N)C(=O)O [5x-D-lysine, D-lysine]
- liver cystine level at 8 months-of-age (Ctns KO mice liver): did not affect
- mean kidney cystine at 8 months-of-age (Ctns KO mice kidneys; Ctns KO female mice): 44.6 ± 10.8 nmol hemi-cystine/mg kidney protein
- kidney cystine accumulation during the treatment period (Ctns KO mice kidneys; Ctns KO mice): probably fully arrested
- IC50 (porcine megalin [1]; [8]): 22 mM
- SPR signal of amino-acid alone on megalin chip (porcine megalin [1]): no signal was detected
- increase of microalbuminuria vs control diet (megalin pathway [4]; Ctns KO female mice, diet from 6-to-8 months of age): > twofold
- Urine CC16/creatinine (megalin pathway [4]; [9]): 18,257 ± 1488 μg/g
- Urine microalbumin/creatinine (megalin pathway [4]; [9]): 0.5 ± 0.2 (n = 8) mg/g
- tolerance of prolonged diet [2]: strong polyuria but no weight loss
- effect on megalin binding of lysozyme (porcine megalin [3]): concentration-dependent decrease
- Body weight [5]: 22.4 ± 0.3 g
- Serum creatinine ([5]; serum): 0.8 ± 0.1 mg/dL
- Serum cystatin-C ([5]; serum): 723.3 ± 32.7 ng/mL
- Serum glucose ([5]; serum): 172.4 ± 7.9 mg/dL
- Serum phosphate ([5]; serum): 9.5 ± 0.4 mg/dL
- Serum urea ([5]; serum): 43.2 ± 2.0 mg/dL
- Daily creatinine output ([5]; urine): 0.7 ± 0.1 mg/day
- Diuresis ([5]; urine): 5.3 ± 0.8 mL/day
- Urine creatinine ([5]; urine): 13.4 ± 1.2 mg/dL
- Urine glucose/creatinine ([5]; urine): 54.4 ± 4.5 g/g
- Urine phosphate/creatinine ([5]; urine): 4.8 ± 0.4 g/g
- Urine urea/creatinine ([5]; urine): 181.8 ± 11.6 g/g
- increase of urinary excretion of CC16 (normalized for creatinine excretion) (megalin pathway [6]): 20 fold
- Urinary alanine [7, 10]: 1097 ± 106.5 mM/M creatinine
- Urinary arginine [7, 10]: 265 ± 27.5 mM/M creatinine
- Urinary cystine [7, 10]: 481.6 ± 32.8 mM/M creatinine
- Urinary glycine [7, 10]: 1066 ± 162 mM/M creatinine
- Urinary lysine [7, 10]: 123,851 ± 8548 mM/M creatinine
- urinary lysine concentration reached ([7]; Ctns KO mice, daily urine collections): ~ 150 mM
- increase of argininuria ([7]; Ctns KO mice, vs control diet): 12 fold
- increase of cystinuria ([7]; Ctns KO mice, vs control diet): 7 fold
- increase of lysinuria ([7]; Ctns KO mice, vs control diet): 2200 fold

SMILES: N=C(N)NCCC[C@H](N)C(=O)O [arginine]
- IC50 (porcine megalin [1]; [11]): ~60 mM

SMILES: NCC(=O)O [glycine]
- SPR signal of amino-acid alone on megalin chip (porcine megalin [1]): no signal was detected
- effect on megalin:TC:B12 interaction (porcine megalin [1]; up to 100 mM): No detectable effect
- effect on megalin binding of lysozyme (porcine megalin [3]): No detectable effect

SMILES: NCCCC[C@H](N)C(=O)O [lysine]
- IC50 (porcine megalin [1]; [11]): ~25 mM
